# Values of other authors in patent publication US20100016430A1, “MODIFIED COCONUT OILS WITH BROAD ANTIMICROBIAL SPECTRUM” (MALAYSIAN AGRICULTERAL RESEARCH AND DEVELOPMENT IN, priority 2005, published 2010).
# Columns and labels:
# C. albicans = conditions: Bergsson et al. 2001
# C. trachomatis = conditions: for Effect on C. trachomatis: 10 mM concentration
# H. pylori = conditions: 10 mM for 30 min at 37° C.
# Pseudomonas spp = conditions: 250 and 500 ppm in naturally contaminated cottage cheese
# coliform = conditions: 250 and 500 ppm in naturally contaminated cottage cheese
smiles,measurement,setting,value
CCCCCCCC/C=C\CCCCCCCC(=O)O [oleic acid],Killing of C. albicans / antimicrobial effect,C. albicans,do not shown antimicrobial effect
CCCCCCCC(=O)OCC(O)CO (stereo not drawn) [monocaprylin],Effect on C. trachomatis,C. trachomatis,negligible effect
CCCCCCCCCCCC(=O)O [lauric acid],Inactivation of C. trachomatis,C. trachomatis; 5 mM for 5 min,"greater than 100,000 fold"
same,Killing of C. albicans / antimicrobial effect,C. albicans,fastest and most effective killing
CCCCCCCCCC(=O)O [capric acid],Killing of C. albicans / antimicrobial effect,C. albicans,fastest and most effective killing
CCCCCCCCCCCCCC(=O)O [myristic acid],Killing of C. albicans / antimicrobial effect,C. albicans,do not shown antimicrobial effect
CCCCCCCCCCCC(=O)OCC(O)CO (stereo not drawn) [monolaurin],Effect on C. trachomatis,C. trachomatis,negligible effect
same,Activity against H. pylori,H. pylori,most active
same,Inhibition of Pseudomonas spp,Pseudomonas spp,more than 90%
same,Inhibition of coliform,coliform,more than 90%
CCCCCCCCCC(=O)OCC(O)CO (stereo not drawn) [monocaprin],Activity against H. pylori,H. pylori,most active
CCCCCC/C=C\CCCCCCCC(=O)O [palmitoleic acid],Killing of C. albicans / antimicrobial effect,C. albicans,do not shown antimicrobial effect
